Data from patent US20200375987A1, “METALLO-BETA-LACTAMASE INHIBITORS AND METHODS OF USE THEREOF” (priority 2018, published 2020).

Tests used:
NDM-1 = NDM-1 (Klebsiella pneumoniae, UniProt C7C422); assay: Enzyme activity: determination of IC50, fluorescence assay with CCF2-FA substrate (NDM-1); type: biochemical; settings: 1 pM enzyme, 1.25 μM CCF2-FA, 2 hours at 25° C.; read-out: NDM1 IC50
Method in brief: (§1)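 Metallo-β-lactamase activity read by fluorescence against CCF2-FA (1.25 μM final) in 100 mM KH2PO4 pH 7 with 0.005% Tween-20 and 10 μM ZnSO4; enzyme final at 1 pM NDM-1, 2 pM IMP-1 or 30 pM VIM-1. Inhibitor at 20 to 0.00063 μM, 2 h at 25° C; IC50 by 4-parameter fit.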

IMP-1 = IMP-1 (Serratia marcescens, UniProt P52699); assay: Enzyme activity: determination of IC50, fluorescence assay with CCF2-FA substrate (IMP-1); type: biochemical; settings: 2 pM enzyme, 1.25 μM CCF2-FA, 2 hours at 25° C.; read-out: IMP1 IC50
Method in brief: as §1

VIM-1 = VIM-1 (Pseudomonas aeruginosa, UniProt A0A0F7KYQ8); assay: Enzyme activity: determination of IC50, fluorescence assay with CCF2-FA substrate (VIM-1); type: biochemical; settings: 30 pM enzyme, 1.25 μM CCF2-FA, 2 hours at 25° C.; read-out: VIM1 IC50
Method in brief: as §1

VIM-2 = VIM-2 (Escherichia coli, UniProt Q5U7L7); assay: Enzyme activity: determination of IC50 (VIM-2); type: biochemical; settings: read-out: VIM2 IC50
[1] = tested on: Escherichia coli expressing NDM-1 (CLB30016); assay: Antibiotic potentiation activity: synergistic concentration (MITC95) with imipenem; type: cell-based; settings: imipenem 1 μg/mL; lowest concentration inhibiting 95% of growth; 35° C., 22-24 hours
Method in brief: (§2)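 Clinical MBL-expressing strains diluted into 1.1× CAMHB were incubated with compound plus imipenem at 1 μg/mL for 22–24 h at 35 °C, then absorbance was read. MITC95 is the lowest compound concentration giving 95% growth inhibition in the presence of imipenem.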

[2] = tested on: Klebsiella pneumoniae expressing VIM-1 (IHMA599644); assay: as above; type: cell-based; settings: imipenem 1 μg/mL; lowest concentration inhibiting 95% of growth; 35° C., 22-24 hours
Method in brief: as §2

[3] = tested on: Serratia marcescens expressing IMP-1 (CL5741); assay: as above; type: cell-based; settings: imipenem 1 μg/mL; lowest concentration inhibiting 95% of growth; 35° C., 22-24 hours
Method in brief: as §2

[4] = tested on: P. aeruginosa MB9798 (efflux WT, IMP-1); assay: Efflux: concentration of MBL inhibitor restoring susceptibility to imipenem (MITC95), efflux+ strain; type: cell-based, Pseudomonas aeruginosa; settings: imipenem at 2 μg/mL in the presence of a class A, C, D serine β-lactamase inhibitor closely related to relebactam
Method in brief: (§3)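 Isogenic P. aeruginosa PAO1 strains, efflux+ and efflux−, transformed with IMP-1 plasmid, were tested by microbroth MIC with fixed imipenem, usually at CLSI breakpoint, plus fixed class A/C β-lactamase inhibitor against AmpC. MBL inhibitor was serially titrated; the concentration restoring susceptibility was recorded.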

[5] = tested on: P. aeruginosa MB9799 (efflux mutant, IMP-1); assay: Efflux: concentration of MBL inhibitor restoring susceptibility to imipenem (MITC95), efflux− strain; type: cell-based, Pseudomonas aeruginosa; settings: imipenem at 2 μg/mL in the presence of a class A, C, D serine β-lactamase inhibitor closely related to relebactam
Method in brief: as §3

IMP-1, sequence (P52699 19-246, looked up, species assumed): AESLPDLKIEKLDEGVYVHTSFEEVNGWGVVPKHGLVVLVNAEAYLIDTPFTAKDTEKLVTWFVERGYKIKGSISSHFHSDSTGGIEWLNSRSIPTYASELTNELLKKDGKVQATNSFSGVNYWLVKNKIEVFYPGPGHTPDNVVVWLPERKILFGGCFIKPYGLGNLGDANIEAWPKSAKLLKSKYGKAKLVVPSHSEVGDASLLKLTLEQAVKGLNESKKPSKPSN
NDM-1, sequence (C7C422 29-270, looked up, species assumed): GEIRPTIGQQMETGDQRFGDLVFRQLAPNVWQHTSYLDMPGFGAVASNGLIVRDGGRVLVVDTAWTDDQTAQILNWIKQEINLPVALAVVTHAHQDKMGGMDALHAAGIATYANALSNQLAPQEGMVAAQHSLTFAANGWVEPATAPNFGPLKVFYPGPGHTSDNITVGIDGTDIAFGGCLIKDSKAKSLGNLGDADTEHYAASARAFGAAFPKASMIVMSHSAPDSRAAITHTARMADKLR

Row | SMILES | IC50 (NDM-1) [nM] | IC50 (IMP-1) [nM] | IC50 (VIM-1) [nM] | IC50 (VIM-2) [nM] | CLB30016 E.coli MITC95 NDM [1] [µM] | IHMA599644 K.pneumoniae MITC95 uM VIM [2] [µM] | CL5741 S.marcescens MITC95 uM IMP [3] [µM] | MB9798 MITC95 P. aeruginosa Efflux WT [4] [µM] | MB9799 MITC95 P. aeruginosa Efflux Mutant [5] [µM]
1 | NS(=O)(=O)c1c(S(=O)(=O)N[C@@H]2CCNC2)ccc(N2CCc3ncc(O)cc3C2)c1-c1nnn[nH]1 [Example 24, 4-(3-hydroxy-7,8-dihydro-1,6-naphthyridin-6(5H)-yl)-N1-[(3R)-pyrrolidin-3-yl]-3-(1H-tetrazol-5-yl)benzene-1,2-disulfonamide] | 0.28 | 1.39 | 0.19 | 0.74 | 0.39 | 3.13 | 1.56 | 25.00 | 3.13
2 | NS(=O)(=O)c1c(S(=O)(=O)N[C@@H]2CCNC2)ccc(N2CCc3nc(O)ccc3C2)c1-c1nnn[nH]1 [Example 25, 4-(2-hydroxy-7,8-dihydro-1,6-naphthyridin-6(5H)-yl)-N1-[(3R)-pyrrolidin-3-yl]-3-(1H-tetrazol-5-yl)benzene-1,2-disulfonamide] | 3.09 | 6.11 | 1.1 | 4.79 | 0.39 | 1.56 | 0.78 | 6.25 | 0.78
3 | NS(=O)(=O)c1c(S(=O)(=O)N[C@@H]2CCNC2)ccc(N2CCc3[nH]nnc3C2)c1-c1nnn[nH]1 [Example 26, N1-[(3R)-pyrrolidin-3-yl]-4-(1,4,6,7-tetrahydro-5H-[1,2,3]triazolo[4,5-c]pyridin-5-yl)-3-(1H-tetrazol-5-yl)benzene-1,2-disulfonamide] | 2.14 | 5.97 | 1.75 | 5.08 | 0.78 | 3.13 | 1.56 | 6.25 | 0.78
4 | Cc1cc2c(c(C)n1)CCN2c1ccc(S(=O)(=O)N[C@@H]2CCNC2)c(S(N)(=O)=O)c1-c1nnn[nH]1 [Example 27, 4-(4,6-dimethyl-2,3-dihydro-1H-pyrrolo[3,2-c]pyridin-1-yl)-N1-[(3R)-pyrrolidin-3-yl]-3-(1H-tetrazol-5-yl)benzene-1,2-disulfonamide] | 5 | 84 | 0.14 | 1.37 | 1.56 | 3.13 | 6.25 | 50.00 | 3.13
5 | CNC(=O)c1nsc2c1CCN(c1ccc(S(=O)(=O)N[C@@H]3CCNC3)c(S(N)(=O)=O)c1-c1nnn[nH]1)C2 [Example 28, N-methyl-6-{4-[(3R)-pyrrolidin-3-ylsulfamoyl]-3-sulfamoyl-2-(1H-tetrazol-5-yl)phenyl}-4,5,6,7-tetrahydroisothiazolo[5,4-c]pyridine-3-carboxamide] | 0.21 | 0.28 | 0.15 | 0.48 | 0.78 | 6.25 | 1.56 | 12.50 | 3.13
6 | Nc1nc2c(s1)CN(c1ccc(S(=O)(=O)N[C@@H]3CCNC3)c(S(N)(=O)=O)c1-c1nnn[nH]1)CC2 [Example 29, 4-(2-amino-6,7-dihydro[1,3]thiazolo[5,4-c]pyridin-5(4H)-yl)-N1-[(3R)-pyrrolidin-3-yl]-3-(1H-tetrazol-5-yl)benzene-1,2-disulfonamide] | 6.28 | 7.11 | 8.27 | 32.8 | 1.56 | 12.50 | 1.56 | 25.00 | 0.78
7 | NS(=O)(=O)c1c(S(=O)(=O)N[C@@H]2CCNC2)ccc(N2CCc3[nH]ncc3C2)c1-c1nnn[nH]1 [Example 30, N1-[(3R)-pyrrolidin-3-yl]-4-(1,4,6,7-tetrahydro-5H-pyrazolo[4,3-c]pyridin-5-yl)-3-(1H-tetrazol-5-yl)benzene-1,2-disulfonamide] | 0.19 | 1.11 | 0.25 | 0.98 | 0.78 | 6.25 | 1.56 | 6.25 | 1.56
8 | NS(=O)(=O)c1c(S(=O)(=O)N[C@@H]2CCNC2)ccc(N2CCc3[nH]cnc3C2)c1-c1nnn[nH]1 [Example 31, N1-[(3R)-pyrrolidin-3-yl]-4-(1,4,6,7-tetrahydro-5H-imidazo[4,5-c]pyridin-5-yl)-3-(1H-tetrazol-5-yl)benzene-1,2-disulfonamide] | 1.13 | 7 | 0.59 | 3.3 | 0.20 | 3.13 | 0.78 | 3.13 | 0.78
9 | NS(=O)(=O)c1c(S(=O)(=O)N[C@@H]2CCNC2)ccc(N2CCc3cccnc32)c1-c1nnn[nH]1 [Example 32, 4-(2,3-dihydro-1H-pyrrolo[2,3-b]pyridin-1-yl)-N1-[(3R)-pyrrolidin-3-yl]-3-(1H-tetrazol-5-yl)benzene-1,2-disulfonamide] | 0.21 | 1.14 | 0.17 | 0.39 | 1.56 | 3.13 | 1.56 | 3.13 | 1.56
10 | NS(=O)(=O)c1c(S(=O)(=O)N[C@@H]2CCNC2)ccc(N2CCc3ccncc32)c1-c1nnn[nH]1 [Example 33, 4-(2,3-dihydro-1H-pyrrolo[2,3-c]pyridin-1-yl)-N1-[(3R)-pyrrolidin-3-yl]-3-(1H-tetrazol-5-yl)benzene-1,2-disulfonamide] | 0.3 | 1.73 | 0.26 | 0.72 | 1.56 | 3.13 | 3.13 | 6.25 | 1.56
11 | NS(=O)(=O)c1c(S(=O)(=O)N[C@@H]2CCNC2)ccc(N2CCc3ncccc32)c1-c1nnn[nH]1 [Example 34, 4-(2,3-dihydro-1H-pyrrolo[3,2-b]pyridin-1-yl)-N1-[(3R)-pyrrolidin-3-yl]-3-(1H-tetrazol-5-yl)benzene-1,2-disulfonamide] | 0.29 | 5.21 | 0.25 | 0.81 | 0.39 | 3.13 | 1.56 | 12.50 | 1.56
